#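 Grown in 96-well plates, cells were treated for 48 hours with each compound at five concentrations. Insufficient inhibition: endpoint recorded as highest concentration tested. Definition used: TGI = concentration required for complete inhibition of growth.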 Where a SMILES comes first, the peptide text is derived from it. [ ]: non-standard residue; d: D form. The star is where a group is joined. Chg = N[CH](C(=O)O)C1CCCCC1; Cbz = O=C(OCc1ccccc1)*; OBn = c1ccc(CO*)cc1
# System: SK-MEL-28 melanoma
# Assay: DTP human tumour cell line panel, 48 h
row,SMILES,TGI
1,COC(=O)C(NC(=O)C(CC(=O)OCc1ccccc1)NC(=O)OCc1ccccc1)C1CCCCC1 (configuration not stated) (Cbz-Asp(OBn)-[Chg]-OMe; configuration not given here),> 100 µM
2,OC[C@H]1C[C@@H]2Cc3ccccc3N2N1,> 100 µM
3,COP(=O)(OC)/C(=C\C1=CN(C(c2ccccc2)(c2ccccc2)c2ccccc2)CN1)NC=O,32.5 µM
4,Nc1c(N2CCCCC2)c(=O)nc2[nH]/c(=C\c3ccco3)c(=O)n12,> 100 µM
5,Cc1[nH]n(-c2ncc(C#N)c(=O)[nH]2)c(=O)c1CCO,> 100 µM

# System: SK-MEL-5 melanoma
# Assay: DTP human tumour cell line panel, 48 h
row,SMILES,TGI
1,COC(=O)C(NC(=O)C(CC(=O)OCc1ccccc1)NC(=O)OCc1ccccc1)C1CCCCC1 (configuration not stated) (Cbz-Asp(OBn)-[Chg]-OMe; configuration not given here),> 100 µM
2,OC[C@H]1C[C@@H]2Cc3ccccc3N2N1,> 100 µM
3,COP(=O)(OC)/C(=C\C1=CN(C(c2ccccc2)(c2ccccc2)c2ccccc2)CN1)NC=O,29.6 µM
4,Nc1c(N2CCCCC2)c(=O)nc2[nH]/c(=C\c3ccco3)c(=O)n12,> 100 µM
5,Cc1[nH]n(-c2ncc(C#N)c(=O)[nH]2)c(=O)c1CCO,> 100 µM

# System: SK-OV-3 ovarian
# Assay: DTP human tumour cell line panel, 48 h
row,SMILES,TGI
1,COC(=O)C(NC(=O)C(CC(=O)OCc1ccccc1)NC(=O)OCc1ccccc1)C1CCCCC1 (configuration not stated) (Cbz-Asp(OBn)-[Chg]-OMe; configuration not given here),> 100 µM
2,OC[C@H]1C[C@@H]2Cc3ccccc3N2N1,> 100 µM
3,COP(=O)(OC)/C(=C\C1=CN(C(c2ccccc2)(c2ccccc2)c2ccccc2)CN1)NC=O,33.1 µM
4,Nc1c(N2CCCCC2)c(=O)nc2[nH]/c(=C\c3ccco3)c(=O)n12,> 100 µM
5,Cc1[nH]n(-c2ncc(C#N)c(=O)[nH]2)c(=O)c1CCO,> 100 µM

# System: SN12C renal
# Assay: DTP human tumour cell line panel, 48 h
row,SMILES,TGI
1,COC(=O)C(NC(=O)C(CC(=O)OCc1ccccc1)NC(=O)OCc1ccccc1)C1CCCCC1 (configuration not stated) (Cbz-Asp(OBn)-[Chg]-OMe; configuration not given here),> 100 µM
2,OC[C@H]1C[C@@H]2Cc3ccccc3N2N1,> 100 µM
3,COP(=O)(OC)/C(=C\C1=CN(C(c2ccccc2)(c2ccccc2)c2ccccc2)CN1)NC=O,36.3 µM
4,Nc1c(N2CCCCC2)c(=O)nc2[nH]/c(=C\c3ccco3)c(=O)n12,> 100 µM
5,Cc1[nH]n(-c2ncc(C#N)c(=O)[nH]2)c(=O)c1CCO,> 100 µM

# System: SNB-19 CNS
# Assay: DTP human tumour cell line panel, 48 h
row,SMILES,TGI
1,COC(=O)C(NC(=O)C(CC(=O)OCc1ccccc1)NC(=O)OCc1ccccc1)C1CCCCC1 (configuration not stated) (Cbz-Asp(OBn)-[Chg]-OMe; configuration not given here),> 100 µM
2,OC[C@H]1C[C@@H]2Cc3ccccc3N2N1,> 100 µM
3,COP(=O)(OC)/C(=C\C1=CN(C(c2ccccc2)(c2ccccc2)c2ccccc2)CN1)NC=O,43.4 µM
4,Nc1c(N2CCCCC2)c(=O)nc2[nH]/c(=C\c3ccco3)c(=O)n12,> 100 µM
5,Cc1[nH]n(-c2ncc(C#N)c(=O)[nH]2)c(=O)c1CCO,> 100 µM

# System: SNB-75 CNS
# Assay: DTP human tumour cell line panel, 48 h
row,SMILES,TGI
1,COC(=O)C(NC(=O)C(CC(=O)OCc1ccccc1)NC(=O)OCc1ccccc1)C1CCCCC1 (configuration not stated) (Cbz-Asp(OBn)-[Chg]-OMe; configuration not given here),> 100 µM
2,OC[C@H]1C[C@@H]2Cc3ccccc3N2N1,> 100 µM
3,COP(=O)(OC)/C(=C\C1=CN(C(c2ccccc2)(c2ccccc2)c2ccccc2)CN1)NC=O,39.8 µM
4,Nc1c(N2CCCCC2)c(=O)nc2[nH]/c(=C\c3ccco3)c(=O)n12,> 100 µM
5,Cc1[nH]n(-c2ncc(C#N)c(=O)[nH]2)c(=O)c1CCO,99 µM

# System: SR leukemia
# Assay: DTP human tumour cell line panel, 48 h
row,SMILES,TGI
1,COC(=O)C(NC(=O)C(CC(=O)OCc1ccccc1)NC(=O)OCc1ccccc1)C1CCCCC1 (configuration not stated) (Cbz-Asp(OBn)-[Chg]-OMe; configuration not given here),> 100 µM
2,OC[C@H]1C[C@@H]2Cc3ccccc3N2N1,> 100 µM
3,COP(=O)(OC)/C(=C\C1=CN(C(c2ccccc2)(c2ccccc2)c2ccccc2)CN1)NC=O,33.7 µM
4,Nc1c(N2CCCCC2)c(=O)nc2[nH]/c(=C\c3ccco3)c(=O)n12,> 100 µM
5,Cc1[nH]n(-c2ncc(C#N)c(=O)[nH]2)c(=O)c1CCO,> 100 µM

# System: SW-620 colon
# Assay: DTP human tumour cell line panel, 48 h
row,SMILES,TGI
1,COC(=O)C(NC(=O)C(CC(=O)OCc1ccccc1)NC(=O)OCc1ccccc1)C1CCCCC1 (configuration not stated) (Cbz-Asp(OBn)-[Chg]-OMe; configuration not given here),> 100 µM
2,OC[C@H]1C[C@@H]2Cc3ccccc3N2N1,> 100 µM
3,COP(=O)(OC)/C(=C\C1=CN(C(c2ccccc2)(c2ccccc2)c2ccccc2)CN1)NC=O,42.4 µM
4,Nc1c(N2CCCCC2)c(=O)nc2[nH]/c(=C\c3ccco3)c(=O)n12,> 100 µM
5,Cc1[nH]n(-c2ncc(C#N)c(=O)[nH]2)c(=O)c1CCO,> 100 µM

# System: T-47D breast
# Assay: DTP human tumour cell line panel, 48 h
row,SMILES,TGI
1,COC(=O)C(NC(=O)C(CC(=O)OCc1ccccc1)NC(=O)OCc1ccccc1)C1CCCCC1 (configuration not stated) (Cbz-Asp(OBn)-[Chg]-OMe; configuration not given here),> 100 µM
2,OC[C@H]1C[C@@H]2Cc3ccccc3N2N1,> 100 µM
3,COP(=O)(OC)/C(=C\C1=CN(C(c2ccccc2)(c2ccccc2)c2ccccc2)CN1)NC=O,49.2 µM
4,Nc1c(N2CCCCC2)c(=O)nc2[nH]/c(=C\c3ccco3)c(=O)n12,> 100 µM
5,Cc1[nH]n(-c2ncc(C#N)c(=O)[nH]2)c(=O)c1CCO,> 100 µM

# System: TK-10 renal
# Assay: DTP human tumour cell line panel, 48 h
row,SMILES,TGI
1,COC(=O)C(NC(=O)C(CC(=O)OCc1ccccc1)NC(=O)OCc1ccccc1)C1CCCCC1 (configuration not stated) (Cbz-Asp(OBn)-[Chg]-OMe; configuration not given here),> 100 µM
2,OC[C@H]1C[C@@H]2Cc3ccccc3N2N1,> 100 µM
3,COP(=O)(OC)/C(=C\C1=CN(C(c2ccccc2)(c2ccccc2)c2ccccc2)CN1)NC=O,49.7 µM
4,Nc1c(N2CCCCC2)c(=O)nc2[nH]/c(=C\c3ccco3)c(=O)n12,> 100 µM
5,Cc1[nH]n(-c2ncc(C#N)c(=O)[nH]2)c(=O)c1CCO,> 100 µM

# System: U251 CNS
# Assay: DTP human tumour cell line panel, 48 h
row,SMILES,TGI
1,COC(=O)C(NC(=O)C(CC(=O)OCc1ccccc1)NC(=O)OCc1ccccc1)C1CCCCC1 (configuration not stated) (Cbz-Asp(OBn)-[Chg]-OMe; configuration not given here),> 100 µM
2,OC[C@H]1C[C@@H]2Cc3ccccc3N2N1,> 100 µM
3,COP(=O)(OC)/C(=C\C1=CN(C(c2ccccc2)(c2ccccc2)c2ccccc2)CN1)NC=O,29.8 µM
4,Nc1c(N2CCCCC2)c(=O)nc2[nH]/c(=C\c3ccco3)c(=O)n12,> 100 µM
5,Cc1[nH]n(-c2ncc(C#N)c(=O)[nH]2)c(=O)c1CCO,> 100 µM

# System: UACC-257 melanoma
# Assay: DTP human tumour cell line panel, 48 h
row,SMILES,TGI
1,COC(=O)C(NC(=O)C(CC(=O)OCc1ccccc1)NC(=O)OCc1ccccc1)C1CCCCC1 (configuration not stated) (Cbz-Asp(OBn)-[Chg]-OMe; configuration not given here),> 100 µM
2,OC[C@H]1C[C@@H]2Cc3ccccc3N2N1,> 100 µM
3,COP(=O)(OC)/C(=C\C1=CN(C(c2ccccc2)(c2ccccc2)c2ccccc2)CN1)NC=O,34.1 µM
4,Nc1c(N2CCCCC2)c(=O)nc2[nH]/c(=C\c3ccco3)c(=O)n12,> 100 µM
5,Cc1[nH]n(-c2ncc(C#N)c(=O)[nH]2)c(=O)c1CCO,> 100 µM

# System: UACC-62 melanoma
# Assay: DTP human tumour cell line panel, 48 h
row,SMILES,TGI
1,COC(=O)C(NC(=O)C(CC(=O)OCc1ccccc1)NC(=O)OCc1ccccc1)C1CCCCC1 (configuration not stated) (Cbz-Asp(OBn)-[Chg]-OMe; configuration not given here),> 100 µM
2,OC[C@H]1C[C@@H]2Cc3ccccc3N2N1,> 100 µM
3,Cc1[nH]n(-c2ncc(C#N)c(=O)[nH]2)c(=O)c1CCO,> 100 µM

# System: UO-31 renal
# Assay: DTP human tumour cell line panel, 48 h
row,SMILES,TGI
1,COC(=O)C(NC(=O)C(CC(=O)OCc1ccccc1)NC(=O)OCc1ccccc1)C1CCCCC1 (configuration not stated) (Cbz-Asp(OBn)-[Chg]-OMe; configuration not given here),> 100 µM
2,COP(=O)(OC)/C(=C\C1=CN(C(c2ccccc2)(c2ccccc2)c2ccccc2)CN1)NC=O,29.1 µM
3,Nc1c(N2CCCCC2)c(=O)nc2[nH]/c(=C\c3ccco3)c(=O)n12,> 100 µM
4,Cc1[nH]n(-c2ncc(C#N)c(=O)[nH]2)c(=O)c1CCO,> 100 µM

# From PubChem BioAssay (NCI)
